In brackets after ≈: the same amount, converted by molar mass. Activity calls are given as the source filed them. No cut-off for these calls is given here.

MIC and viability data for 7 compounds are collected here from ChEMBL document CHEMBL2440055, “Unusual transformation of substituted-3-formylchromones to pyrimidine analogues: synthesis and antimicrobial activities of 5-(o-hydroxyaroyl)pyrimidines” (Bioorg Med Chem Lett, 2013).

In one series the test system is Candida tropicalis. The series can be described thus: Antifungal activity against Candida tropicalis MTCC-230 after 24 to 72 hrs by broth dilution method. The series is classed as functional. (Dilution methods test growth across graded concentrations, often in twofold steps.)
A further series concerns Shigella flexneri. The series can be described thus: Antibacterial activity against Shigella flexneri MTCC-1457 after overnight incubation by two-fold broth dilution method. The class given is functional.
In another series the test system is Candida albicans. As to the kind of experiment: Antifungal activity against Candida albicans MTCC-227 after 24 to 72 hrs by broth dilution method. The series is classed as functional.
For another series, the system named is Escherichia coli. As to the kind of experiment: Antibacterial activity against Escherichia coli MTCC-119 after overnight incubation by two-fold broth dilution method. The series is classed as functional.
A further series relates to Geotrichum. As to the kind of experiment: Antifungal activity against Geotrichum candidum MTCC-3993 after 24 to 72 hrs by broth dilution method. The class given is functional.
The test system of series [1] is Staphylococcus aureus. To be noted: MTCC-740.
The next series has as its system Pseudomonas aeruginosa. As to the kind of experiment: Antibacterial activity against Pseudomonas aeruginosa MTCC-741 after overnight incubation by two-fold broth dilution method. The class given is functional.
The test system of another series is Aspergillus niger. As to the kind of experiment: Antifungal activity against Aspergillus niger MTCC-281 after 24 to 72 hrs by broth dilution method. The class given is functional.
In series [2] the test system is Staphylococcus aureus. The series can be described thus: Antibacterial activity against Staphylococcus aureus MTCC-740 after overnight incubation by two-fold broth dilution method.
A short description of series [3]: Cytotoxicity against human HeLa cells assessed as cell survival at 200 uM up to 24 hrs by MTT assay. The class given is cell-based. To be noted: read-out: Survival. For orientation: Formazan colour is commonly taken as a measure of viable cells.
The nature of series [4]: Cytotoxicity against human HeLa cells assessed as cell survival at 20 uM after 24 hrs by MTT assay. To be noted: read-out: Survival. The class given is cell-based.

For orientation: MIC means the lowest concentration found to suppress growth. With `Cc1ccc(O)c(C(=O)c2cncnc2)c1`, the minimal inhibitory concentration (MIC) was 54 µg/mL (≈ 252 µM) in the series with Candida tropicalis; 84 µg/mL (≈ 392 µM) in the series with Shigella flexneri; 70 µg/mL (≈ 327 µM) against Candida albicans; greater than 100 µg/mL against Escherichia coli; 40 µg/mL (≈ 187 µM) against Geotrichum; 60 µg/mL (≈ 280 µM) in the series on Pseudomonas aeruginosa. This compound came in with a minimum inhibitory concentration (MIC) against Aspergillus niger of 55 µg/mL (≈ 257 µM). Further, in the series with Staphylococcus aureus [1], the MIC entry is “inactive”.

As for `O=C(O)c1cn(C2CC2)c2cc(N3CCNCC3)c(F)cc2c1=O` [CIPROFLOXACIN], the MIC came out at 1.2 µg/mL (≈ 3.62 µM) with Shigella flexneri, 0.7 µg/mL (≈ 2.11 µM) in the series with Pseudomonas aeruginosa and 1.6 µg/mL (≈ 4.83 µM) with Staphylococcus aureus [2].

Take `OC(Cn1cncn1)(Cn1cncn1)c1ccc(F)cc1F` [FLUCONAZOLE]: the MIC in the series on Candida tropicalis was 23 µg/mL (≈ 75.1 µM); against Candida albicans it was 20 µg/mL (≈ 65.3 µM); against Geotrichum, 10 µg/mL (≈ 32.7 µM); with Aspergillus niger it was 45 µg/mL (≈ 147 µM).

On to `O=C(c1cncnc1)c1cc(F)ccc1O`, for which the minimum inhibitory concentration (MIC) was 78 µg/mL (≈ 357 µM) against Candida tropicalis; 78 µg/mL (≈ 357 µM) against Shigella flexneri; 28 µg/mL (≈ 128 µM) against Candida albicans; greater than 100 µg/mL against Escherichia coli; 35 µg/mL (≈ 160 µM) in the series with Geotrichum; greater than 100 µg/mL with Pseudomonas aeruginosa. In addition, the MIC in the series on Aspergillus niger was greater than 100 µg/mL. The MIC result with Staphylococcus aureus [1] is “inactive”.

Turning to `O=C(c1cncnc1)c1cc(Cl)ccc1O`, the MIC is greater than 100 µg/mL in the series on Candida tropicalis; 74 µg/mL (≈ 315 µM) in the series on Shigella flexneri; 35 µg/mL (≈ 149 µM) against Candida albicans; 68 µg/mL (≈ 290 µM) against Escherichia coli; 28 µg/mL (≈ 119 µM) in the series on Geotrichum; 96 µg/mL (≈ 409 µM) in the series on Pseudomonas aeruginosa. In the series on Aspergillus niger, this compound yielded a minimum inhibitory concentration (MIC) of 50 µg/mL (≈ 213 µM). Further, the MIC entry with Staphylococcus aureus [1] is “inactive”.

For `O=C(c1cncnc1)c1cc(F)c(Cl)cc1O`, the minimal inhibitory concentration (MIC) was 46 µg/mL (≈ 182 µM) with Candida tropicalis; 50 µg/mL (≈ 198 µM) with Shigella flexneri; 46 µg/mL (≈ 182 µM) with Candida albicans; greater than 100 µg/mL in the series on Escherichia coli; 15 µg/mL (≈ 59.4 µM) in the series on Geotrichum; 70 µg/mL (≈ 277 µM) in the series on Pseudomonas aeruginosa. Further, the MIC in the series with Aspergillus niger was determined as 48 µg/mL (≈ 190 µM). Further, in series [3], the viability at 24 h, 200 µM was determined as 84%. In addition, in the series with Staphylococcus aureus [1], the MIC entry was “inactive”. In addition, in [4], the viability at 24 h, 20 µM amounted to 98%.

Take `O=C(c1cncnc1)c1ccccc1O`: the minimum inhibitory concentration (MIC) in the series with Candida tropicalis was greater than 100 µg/mL; with Shigella flexneri, 58 µg/mL (≈ 290 µM); in the series on Candida albicans, 34 µg/mL (≈ 170 µM); in the series with Escherichia coli, 64 µg/mL (≈ 320 µM); against Geotrichum it was 48 µg/mL (≈ 240 µM); against Pseudomonas aeruginosa it was 66 µg/mL (≈ 330 µM). Besides, it took 70 µg/mL (≈ 350 µM) to inhibit growth in the series with Aspergillus niger (MIC). Also, the MIC result in the series with Staphylococcus aureus [1] is “inactive”.
